Results: patent US11173119B2 (YALE UNIVERSITY, priority 2012, dated 2021)

Tests used:
[1] = tested on: Splenocytes; experiment: IL-2 bioactivity study (splenocyte stimulation, IFN-γ ELISA); format: cell-based, B6 mouse; conditions: IFN-γ production correlated with IL-2 concentration
Procedure: Splenocytes were isolated from a B6 mouse and 1×10^6 cells were added in 500 μL T cell media to each well of a 24 well plate previously coated with 10 μg/mL anti-CD3 (coated overnight in 1×PBS at 4° C.) and 5 μg/mL soluble anti-CD28 (BD Biosciences). The media from release studies was filtered through a 0.22-μm syringe filter (Whatman) and 500 μL was added to the wells. Additionally all wells contained 5 μg/mL, soluble anti-CD28 (BD Biosciences). […] Cells were incubated at 37° C. and cellular stimulation was assessed after 72 hours using an IFN-γ ELISA (BD Biosciences).

[2] = tested on: B16 melanomas; experiment: In vivo subcutaneous tumor studies, intratumoral nanolipogel therapy; parameters: species or system B6 albino mice
Procedure: B16-F10 cells (ATCC) were cultured in DMEM (Gibco) and suspended at 2×10^6 cells/mL in 1×PBS (kept on ice) directly prior to injection. For subcutaneous tumor studies, female 6-8 week-old B6 albino mice were sedated with AErrane (isofluorane; Baxter) and the right hind flank was shaved prior to a subcutaneous injection of 50 μL of the cellular suspension. Tumors were monitored and treatment began when the average tumor area reached approximately 5.5 mm^2 (8-10 days after B16 injection; mice were rearranged to normalize tumor sizes across groups).
Observers were blinded for tumor area and survival studies. […] Five mice per group were euthanized at different timepoints and tumors were extracted and weighed.

[3] = tested on: B16 lung metastases; experiment: Metastatic B16 lung tumor study, intravenous nanolipogel therapy; format: in vivo, B6 mice; conditions: two weeks after initial treatment
Procedure: Metastatic B16 melanomas were established in female 6-8 week old B6 mice by intravenous (tail vein) administration of 50 μL of B16 cellular suspension as described by Gorelik, et al. Nat Med 7, 1118-1122 (2001). […] After sacrifice, the chest cavity was exposed and the lungs perfused by making a small incision in the right atrium and injecting 10 mL of cold PBS into the right ventricle. Lung metastates were counted by blinded observers who recorded dark circular masses ranging from 0.1-3 mm as unique tumors.

[4] = cited from earlier work

Q: For `Cc1cccc(-c2[nH]c(C(C)(C)C)nc2-c2ccc3c(c2)OCO3)n1.Cl` [SB, 2-(5-benzo[1,3]dioxol-5-yl-2-tert-butyl-3H-imidazol-4-yl)-6-methylpyridine hydrochloride], which “bioactivity after lipogel incorporation” value [1] is on record?
A: Its value is “unaffected”.

Q: And the survival ([2]; intratumoral)?
A: The survival was “did not improve survival”.

Q: What about the “tumor growth (tumor area versus time)” value ([2]; weekly intratumoral administration) of the same compound?
A: Its value is “failed to delay tumor growth”.

Q: And the “number of lung tumors” value [3]?
A: The value was “failed to reduce the number of lung tumors”.

Q: And the “Log P” value [4]?
A: Its value is 4.33.
